# Experimental data from patent US20050239735A1, “Enhancement of immune responses” (3M Innovative Properties Company, priority 2003, published 2005).
# What was measured:
# [1] = system: adherent cells from human PBMC; assay: Type I IFN production by adherent cells from human PBMC, virus neutralization bioassay of supernatants; format: cell-based
# Experimental: (§1) The amount of Type I interferon (IFN) and tumor necrosis factor-α (TNF-α) produced by the cells in response to the treatment is also recorded in Table I.
# (§2) Briefly, adherent cells from human PBMC were treated with 1-100 U/mL recombinant IFN-α (Lee BioMolecular, San Diego, Calif.) for 24 hours, washed, and then treated with IRM (a concentrated solution of IRM in cell culture medium was added to reach the final concentration indicated in Table I) for an additional 24 hours. A separate group of control cells were treated only with IRM for 24 hours. Cell-free supernatants were then isolated from all of the cultures and analyzed for Type I IFN or TNF-α.
# (§3) Type I IFN production was assayed using a virus neutralization bioassay using A549 human lung carcinoma cells challenged with encephalomyocarditis. The details of the bioassay method have been described by G. L. Brennan and L. H. Kronenberg in “Automated Bioassay of Interferons in Micro-test Plates”, Biotechniques, June/July, 78, 1983, incorporated herein by reference. Briefly stated the method is as follows: A549 cells are incubated with dilutions of samples or a standard interferon at 37° C. for 24 hours. The incubated cells are then infected with an inoculum of encephalomyocarditis virus. The infected cells are incubated for an additional 24 hours at 37° C. before evaluating for viral cytopathic effect. The viral cytopathic effect is quantified by staining with crystal violet followed by visual scoring of the plates. Results are expressed as IFN-α reference units/mL based on the value obtained for NIH Human Leukocyte IFN standard. TNF-α production was determined by ELISA (Biosource International, Inc., Camarillo, Calif.).
# (§4) Adherent cells are obtained and prepared as described in Example 1. The cells are pre-treated as described in Example 1 with either poly(I:C), recombinant IFN-γ, recombinant IFN-α, or receive no pre-treatment. The cells are washed as described in Example 1, then treated as described in Example 1 with either IRM1, IRM2, IRM3, IRM4, IRM5, IRM6, IRM7, IRM8, or IRM9 for 24 hours.
# (§5) Cell free supernatants are isolated from all of the cultures and analyzed for Type I IFN or TNF-α.
# [2] = system: adherent cells from human PBMC; assay: TNF-α production by adherent cells from human PBMC, ELISA of supernatants; format: cell-based
# Experimental: as §1, §2, §3, §4, §5
# [3] = IRM1 0.3 μM for 24 hours after pre-treatment with 1-100 U/mL recombinant IFN-α for 24 hours, washed
# [4] = IRM1 0.3 μM for 24 hours, no pre-treatment
# [5] = IRM1 3.0 μM for 24 hours after pre-treatment with 1-100 U/mL recombinant IFN-α for 24 hours, washed
# [6] = IRM1 3.0 μM for 24 hours, no pre-treatment
smiles,measurement,setting,value
"Cc1nc2c(N)nc3ccccc3c2n1CC(C)(C)O [IRM1, 4-amino-α,α,2-trimethyl-1H-imidazo[4,5-c]quinoline-1-ethanol]",IFN-α,[1]; [3],"3,788 U/mL"
same,IFN-α,[1]; [4],5 U/mL
same,IFN-α,[1]; [5],"3,788 U/mL"
same,IFN-α,[1]; [6],5 U/mL
same,TNF-α,[2]; [3],114 pg/mL
same,TNF-α,[2]; [4],437 pg/mL
same,TNF-α,[2]; [5],284 pg/mL
same,TNF-α,[2]; [6],3295 pg/mL
